# Entries after “also recorded” stand apart in the source; their conditions may differ. {Fluorescein} = fluorescein label
# Experiments:
# [1] = tested on: AR-FL; experiment: AR subcellular fractionation and western blot; format: cell-based, human; conditions: 22Rv1-undup3 cells; 1 nM, 24 hours; FIG. 8
# Experimental: For AR subcellular fractionation, 22Rv1-undup3 cells were seeded in RPMI medium supplemented with 10% CSS for 24 hours and treated with either ethanol (vehicle) or 1 nM mibolerone (synthetic androgen) for 24 hours. Cells were washed with 1×PBS, harvested in hypotonic buffer, and subjected to subcellular fractionation as described elsewhere (see, e.g., Chan et al., 2012, J. Biol. Chem., 287:19736-49). Lysates in 1× Laemmli buffer were loaded in equal volumes on either 7.5% or 4-15% polyacrylamide gels (Biorad TGX) and electrophoresed at 200v for 30 minutes.
# Blots were incubated with antibodies specific to CPSF1 (Bethyl, A301-580, 1:1000), AR (Santa Cruz Santa Cruz Biotechnology N-20, 1:2000), extracellular signal-regulated kinase-2 (ERK-2; Santa Cruz Biotechnology D-2, 1:4000), and AR-V7 (Precision Antibodies, 1:1000). HRP-conjugated goat-anti-mouse (#sc 2005, lot#D1515), and goat-anti-rabbit (#sc 2004, lot#B1315) secondary antibodies were obtained from Santa Cruz and were used at 1:10000 dilutions. Blots were incubated in enhanced chemiluminescence substrate (WesternBright, Advansta #K12045-D50 or SuperSignal West Pico, Thermo #1859674) and exposed to X-ray film for chemiluminescence detection.
# [2] = tested on: AR-FL; experiment: AR-FL expression after morpholino transfection; format: cell-based, human; conditions: FIG. 11C
# Experimental: (§1) 22Rv1 cells (CRL-2505) were obtained from ATCC (Manassas, Va., USA) and cultured according to ATCC protocol. LNCaP95 cells were cultured in phenol red free RMPI 1640 (Invitrogen) supplemented with 10% fetal bovine serum and 1× penicillin/streptomycin. VCaP cells (ATCC CRL-2876) were cultured in DMEM medium (Invitrogen) supplemented with 10% fetal bovine serum and 1× penicillin/streptomycin. ATCC authenticates human cell lines using short tandem repeat analysis. Cell lines were routinely monitored for mycoplasma infection by regularly evaluating aliquots of supernatants from cells in culture for mycoplasma contamination using a PCR-based method as described elsewhere (see, e.g., Uphoff et al., 2012, J. Biomed. Biotechnol., 2012:267678). […]
# (§2) RNA was isolated from cells using the Reliaprep RNA Miniprep System (Promega) and purified according to kit manufacturer instructions, including a 30-minute room temperature DNase treatment. […] RNA concentration and integrity were assessed by denaturing gel electrophoresis or by spectrophotometry with a NanoDrop 2000 (ThermoFisher). […]
# (§3) Quantitative PCR was performed using Quanta PerfeCTa master mix, 200 nM forward and reverse primers, and 2 μL input cDNA (serially diluted in nuclease free water 1:50 for 18S samples) in 20 μL reactions. […] Cycle thresholds (Ct) were determined using the Biorad CFX manager software. […]
# [3] = tested on: AR-V7 mRNA; experiment: specificity test with morpholinos tiling the CE3 PAS: AR-V7 mRNA; format: cell-based, human; conditions: 22Rv1 cells; 10 μM morpholino, 24 hours after transfection; FIG. 19B
# Experimental: (§4) GeneTools' design tool was used to design morpholinos targeting upstream and downstream regions of AR CE3. Sequences were as follows:
# (§5) 22Rv1 cells were transfected with 10 μM control and morpholinos tiling upstream (us) and downstream (ds) of the CE3 PAS (us 100, us 50, CE3 pAM, ds 50, ds 150).
# (§6) Total RNA from tumor tissue was purified using the Promega Reliaprep Tissue kit according to manufacturer instructions, including the on-column DNAse treatment. RNA was eluted in nuclease free water. Reverse transcription and quantitative PCR were performed as described in Example 2. Data were analyzed using the ΔΔCt method and normalized to actin-2 (internal control).
# [4] = tested on: AR-V7, AR-V9 (EX3:CE5), AR-V1 (EX3:CE1), AR-V6 (EX3:CE2a); experiment: AR-V mRNA and protein expression after morpholino transfection (RT-qPCR, western blot); format: cell-based, human; conditions: FIG. 11C
# Experimental: as §1, §2, §3
# [5] = tested on: AR-V2, AR-V5, AR-V7, and AR-V9 mRNA; experiment: AR-V mRNA expression in E43 cells; format: cell-based; conditions: E43 cells transfected with CE3 pAM; FIG. 3B
# Experimental: (§7) E43 cells were cultured in RPMI-1640 and supplemented with 10% FBS and 500 μg/mL penicillin/streptomycin. For androgen blockade experiments, E43 cells were cultured in RPMI-1640 supplemented with 10% charcoal stripped FBS and 500 μg/mL penicillin/streptomycin. Transient transfections were performed using a BTX Square Wave electroporator. Transient transfection of E43 cells with the indicated concentration of CE3 pAM were carried out in RPMI-1640 supplemented with 10% FBS, and subsequently plated in appropriate culture medium. When appropriate, E43 cells were treated with 10 μM enzalutamide (MDV-3100, Selleck Chemicals) in indicated cell culture medium. E43 cells in cell culture medium were treated with vivo-CE3 pAM in 1X phosphate buffered saline at the indicated concentrations.
# [6] = tested on: AR mRNA; experiment: specificity test with morpholinos tiling the CE3 PAS: AR mRNA; format: cell-based, human; conditions: 22Rv1 cells; 10 μM morpholino, 24 hours after transfection; FIG. 19B
# Experimental: as §4, §5, §6
# [7] = tested on: AR-V proteins; experiment: AR-V protein expression in E43 cells (western blot); format: cell-based; conditions: E43 cells transfected with CE3 pAM; FIG. 3A
# Experimental: as §7
# [8] = tested on: E43 cells; experiment: crystal violet growth assay of E43 cells; format: cell-based; conditions: FIG. 3C; for cell growth (crystal violet staining): E43 cells
# Experimental: as §7
# 20,000 E43 cells transfected with 10 μM CE3 pAM or control morpholino were plated in 24-well dishes in the indicated culture medium and subjected to the indicated drug treatments. Crystal violet assays were performed on cells on days 2, 4, 6, 8, 11, and 14. Briefly, cells were fixed in 1% glutaraldehyde in 1X PBS and stained with 0.5% crystal violet in distilled water. At the end of the timecourse, fixed and stained cells were subjected to treatment with Sorenson's buffer (6.1 ml of 0.1 M disodium citrate, 3.9 ml of 0.1N HCl, and 10 ml of 95% ethanol) to release dye. Absorbance was measured at 560 nm.
# [9] = tested on: 22Rv1 cells; experiment: crystal violet growth assay of 22Rv1 cells; format: cell-based, human; conditions: parental 22Rv1 cells transfected with 10 μM; androgen-deplete conditions; FIG. 11D
# Experimental: (§8) 22Rv1 cells (CRL-2505) were obtained from ATCC (Manassas, Va., USA) and cultured according to ATCC protocol. LNCaP95 cells were cultured in phenol red free RMPI 1640 (Invitrogen) supplemented with 10% fetal bovine serum and 1× penicillin/streptomycin. VCaP cells (ATCC CRL-2876) were cultured in DMEM medium (Invitrogen) supplemented with 10% fetal bovine serum and 1× penicillin/streptomycin. ATCC authenticates human cell lines using short tandem repeat analysis. Cell lines were routinely monitored for mycoplasma infection by regularly evaluating aliquots of supernatants from cells in culture for mycoplasma contamination using a PCR-based method as described elsewhere (see, e.g., Uphoff et al., 2012, J. Biomed. Biotechnol., 2012:267678).
# GeneTools' design tool was used to design a 25-mer consisting of the sequence 5′-[…]-3′ (SEQ ID NO:2) targeted to the CE3 PAS (CE3 pAM). As a control, a standard commercially available nontargeting control morpholino was used (GeneTools). […]
# (§9) Electroporated 22Rv1 cells and sublines were seeded at 20,000 cells per well in 24 well dishes in RPMI 1640 supplemented with 10% charcoal-stripped FBS. […] Crystal violet staining assays were performed as described elsewhere (see, e.g., Li et al., 2013, Cancer Res., 73:483-9) and absorbance was measured at 560 nm. Significance was assessed by two tailed t-tests in GraphPad.
# [10] = tested on: full-length AR (AR-FL); experiment: full-length AR expression in E43 cells; format: cell-based; conditions: E43 cells transfected with CE3 pAM; FIG. 3A
# Experimental: as §7
# [11] = tested on: 22Rv1-undup3 cells; experiment: crystal violet growth assay of 22Rv1-undup3 cells; format: cell-based, human; conditions: 22Rv1-undup3 cells transfected with 10 μM, FIG. 11D
# Experimental: as §8
# Cell/siRNA mixtures were electroporated in a 4-mm gap-width cuvette (BTX) with a BTX Square Wave Electroporator (22Rv1 and sublines: 350 V, 10 ms pulse, LNCaP95: 305 V, 10 ms pulse). Following a 15-minute recovery, cells were seeded in appropriate culture medium. […]
# as §9
# [12] = 22Rv1-undup3 cells transfected with 10 μM
# [13] = 22Rv1 cells transfected with 10 μM
Compound,nuclear localization of AR-FL [1],"expression of AR-FL [2, 12]","expression of AR-FL [2, 13]",AR-V7 mRNA levels [3],"mRNA and protein expression of AR-V7, AR-V9, AR-V1, AR-V6 [4, 12]","mRNA and protein expression of AR-V7, AR-V9, AR-V1, AR-V6 [4, 13]","expression of AR-V2, AR-V5, AR-V7, and AR-V9 mRNA [5]",AR mRNA levels [6],expression of AR-V proteins [7],"reduction in cell growth assessed by crystal violet staining ([8]; E43 cells transfected, charcoal stripped serum, plus 10 uM enzalutamide) [%]","cell growth (crystal violet staining) ([8]; 10 μM morpholino transfected, maximum androgen blockade castration+enzalutamide)","cell growth (crystal violet staining) ([8]; transfected, androgenic conditions)",growth (crystal violet) [9],expression of full-length AR (AR-FL) [10],growth (crystal violet) ([11]; androgen-deplete conditions),growth (crystal violet) ([11]; androgen-replete conditions (1 nM DHT))
C[C@@H]1CC2=CC(=O)CC[C@@H]2[C@H]2CC[C@@]3(C)[C@@H](CC[C@]3(C)O)[C@@H]21 [mibolerone],strong nuclear localization; also recorded: localizes to the nucleus,–,–,–,–,–,–,–,–,–,–,–,–,–,–,–
"CE3 pAM: 25-mer morpholino 5′-GTGTATTAATGGCTTTATTAAGGGA-3′ (SEQ ID NO:2) designed to block the AR CE3 poly A signal (all phosphorodiamidate morpholino (PMO), 3' {Fluorescein}; further chemistry not fully specified)",–,increase,increase,reduced,reduction,reduction,blocks; also recorded: blocked expression,increased,blocks; also recorded: dramatically reduced,~50,blocks growth; also recorded: inhibited cell growth,not under androgenic conditions,reduction in growth,increase expression,reduction in growth,inhibited growth

# Source: US10450572B2, “Androgen receptor variant inhibitors and methods of using” (Regents of the University of Minnesota, priority 2016, dated 2019)
